We go through 25 compounds from patent US5932772A, “Separation processes” (Union Carbide Chemicals & Plastics Technology Corporation, priority 1998, dated 1999).

Like-named read-outs stand apart in the source and are kept apart here. Bounds are passed on as bounds.

Data set [1] is described as follows: Ligand partition coefficient between polar solvent and hexane. It counts as physicochemical.
A short description of data set [2]: Kpartition in hydroformylation catalyst mixture extracted with hexane (layers analyzed for rhodium). The class given is physicochemical. The following applies: acetonitrile catalyst solution after 1-dodecene hydroformylation, 74° C, equal volume hexane. On the procedure: To this solution was then charged 5 milliliters of 1-dodecene. The solution was stirred and allowed to equilibrate until no increase in pressure was observed. The reactor was then pressurized to 100 psig with H2 :CO (1:1). Pressure was maintained between 100 and 95 psig until no further reaction had occurred. At this point, the catalyst containing solution was discharged from the reactor. 1.5 milliliters of the catalyst solution was transferred to a vial. To this was added 1.5 milliliters of hexane. The mixture was vigorously shaken for several minutes, then allowed to settle and phase separate. The layers were then separated and analyzed for rhodium content.

The nature of data set [3]: Aldehyde partition coefficient between nonpolar and polar solvent.
Method: The efficiency of this extraction process can be measured by a partition coefficient Kp of the one or more products which is defined as follows: [formula]
The vial was shaken vigorously, then allowed to settle. An aliquot from both phases was removed and analyzed for aldehyde via GC. Table H indicates the partition coefficient, which was determined by the ratio of the GC area for the aldehydes (sum of n and iso) in the nonpolar phase to the polar phase.
In this case, the aldehyde contained iso-heptadecanal, n-heptadecanal, and a small amount of C16 alkenes and alkanes. Table H indicates the partition coefficient.
Table H indicates the partition coefficient.
Table H indicates partition coefficient.
[4] abbreviates: acetonitrile/hexane, ambient temperature.
Setting [5] is: summary table, acetonitrile and hexane.
[6] abbreviates: 3-methyl-2-oxazolidinone/hexane, ambient temperature.
Setting [7] is: DMF/hexane, ambient temperature.
Where [8] appears, read: DMSO/hexane, ambient temperature.
Setting [9] is: adiponitrile/hexane, ambient temperature.
Setting [10] is: caprolactone/hexane, ambient temperature.
Setting [11] is: 2,2-dimethylbutane/acetonitrile.

For `N#CCCP(CCC#N)c1ccccc1` [Ligand L], the Kpartition in data set [1] and in data set [1] (setting [4]) was over 100 in each case.

On to `O=[N+]([O-])c1ccc(Op2oc3ccccc3c3ccccc3o2)cc1` [Ligand R], for which the Kpartition in data set [1] (setting [4]) and in data set [1] (setting [5]) was 22 each time. The “Kpartition in catalyst mixture” value in data set [2] is 5.3.

As to `c1ccc(-c2ccccc2Op2oc3ccccc3c3ccccc3o2)c(Op2oc3ccccc3c3ccccc3o2)c1` [Ligand M], the Kpartition in data set [1] (setting [4]) and in data set [1] (setting [5]) was 25 each time.

Turning to `CCCCCCCCP(CCCCCCCC)CCCCCCCC` [TOP, tri-n-octylphosphine, reference compound], the Kpartition in data set [1] (setting [4]) and in data set [1] (setting [5]) was under 0.01 each time.

As to `N#Cc1cccc(Op2oc3ccccc3c3ccccc3o2)c1` [Ligand N], the Kpartition in data set [1] (setting [4]) and in data set [1] (setting [5]) was 28 each time.

Turning to `CCCCCCCCCCCCCCC=O` [pentadecanal], the “Kpartition (nonpolar to polar phase)” value in data set [3] (hexane/acetonitrile) is on record as 6.8.

Regarding `CCCCCCCCCCCCCCCCC=O` [heptadecanal], the “Kpartition (nonpolar to polar phase)” value in data set [3] (hexane/acetonitrile) was determined as 5.5.

As to `c1ccc(P(c2ccccc2)c2ccccc2)cc1` [TPP, triphenylphosphine, reference compound], the Kpartition is listed as 4.3 in data set [1] (setting [6]); 5.9 in data set [1] (setting [7]); 2.3 in data set [1] (setting [8]); 1.3 in data set [1] (setting [4]); 0.4 in data set [1] (setting [9]); 3 in data set [1] (setting [10]). Further, in data set [1] (setting [5]), the Kpartition is 1.3.

As for `N#CCCP(CCC#N)CCC#N` [Ligand F], the Kpartition in data set [1] (setting [4]) and in data set [1] (setting [5]) was over 100 throughout.

`O=P(CCP(c1ccccc1)c1ccccc1)(c1ccccc1)c1ccccc1` [Ligand D]: the Kpartition in data set [1] (setting [7]) came to 60; in data set [1] (setting [8]) it was 440; in data set [1] (setting [4]), 920; in data set [1] (setting [10]), 80; in data set [1] (setting [5]), 920.

With `OCCCP(c1ccccc1)c1ccccc1` [Ligand J], the Kpartition in data set [1] (setting [4]) and in data set [1] (setting [5]) was 26 in each case.

Regarding `CCCCCCCCCCC=O` [undecanal], the “Kpartition (nonpolar to polar phase)” value in data set [3] (1-decene/acetonitrile) turned out to be 2.3; in data set [3] (setting [11]), 3.3; in data set [3] (cyclohexane/acetonitrile), 2.0; in data set [3] (hexane/3-methyl-2-oxazolidinone), 2.6; in data set [3] (nonane/acetonitrile) it was 1.9.

For `COc1cc(-c2cc(OC)cc(C(C)(C)C)c2Op2oc3ccc(OC)cc3c3cc(OC)ccc3o2)c(Op2oc3ccc(OC)cc3c3cc(OC)ccc3o2)c(C(C)(C)C)c1` [Ligand S], the Kpartition entry in data set [1] (setting [4]) was “greater than 100”.

On to `O=P(CP(c1ccccc1)c1ccccc1)(c1ccccc1)c1ccccc1` [Ligand E], for which the Kpartition is 50 in data set [1] (setting [7]), 620 in data set [1] (setting [8]), 80 in data set [1] (setting [4]) and 620 in data set [1] (setting [5]).

For `N#Cc1ccc(P(c2ccc(C#N)cc2)c2ccc(C#N)cc2)cc1` [Ligand A], the Kpartition in data set [1] (setting [6]) was over 1000; in data set [1] (setting [7]) it was over 1000; in data set [1] (setting [8]), over 1000; in data set [1] (setting [4]), 430; in data set [1] (setting [9]), over 1000; in data set [1] (setting [10]), over 1000. Moreover, the Kpartition in data set [1] (setting [5]) amounted to 430.

As to `COc1ccc(P(c2ccc(OC)cc2)c2ccc(OC)cc2)cc1` [Ligand G], the Kpartition in data set [1] (setting [4]) and in data set [1] (setting [5]) was 11 throughout.

With `N#Cc1ccc(Op2oc3ccccc3c3ccccc3o2)cc1` [Ligand P], the Kpartition in data set [1] (setting [4]) and in data set [1] (setting [5]) was 30 in each case.

Regarding `CCCCCCCCCCCCCCP(c1ccc(C#N)cc1)c1ccc(C#N)cc1` [Ligand I], the Kpartition in data set [1] (setting [4]) and in data set [1] (setting [5]) was 7 throughout.

Regarding `N#Cc1cccc(P(c2cccc(C#N)c2)c2cccc(C#N)c2)c1` [Ligand B], the Kpartition amounted to 470 in data set [1] (setting [7]); 550 in data set [1] (setting [8]); 470 in data set [1] (setting [4]); 960 in data set [1] (setting [10]); 470 in data set [1] (setting [5]).

For `COc1cc(C(C)(C)C)c2op(Oc3ccc([N+](=O)[O-])cc3)oc3c(C(C)(C)C)cc(OC)cc3c2c1` [Ligand Q], the Kpartition in data set [1] (setting [4]) and in data set [1] (setting [5]) was 5.3 each time.

`c1ccc(P(c2ccccc2)C2CCCCC2)cc1` [CHDPP, cyclohexyldiphenylphosphine, reference compound]: the Kpartition came to 1.2 in data set [1] (setting [6]); 2 in data set [1] (setting [7]); 0.5 in data set [1] (setting [8]); 0.5 in data set [1] (setting [4]); 0.4 in data set [1] (setting [9]); 0.4 in data set [1] (setting [5]).

Regarding `CCCCCCCCCCCCC=O` [tridecanal], the “Kpartition (nonpolar to polar phase)” value in data set [3] (1-dodecene/acetonitrile) is 4.3.

With `CCCCCCCCCCCC=O` [dodecanal], the “Kpartition (nonpolar to polar phase)” value in data set [3] (setting [11]) was 4.6; in data set [3] (heptane/acetonitrile) it was 4.4.

Regarding `C1CCC(P(C2CCCCC2)C2CCCCC2)CC1` [TCHP, tricyclohexylphosphine, reference compound], the results for the Kpartition in data set [1] (setting [4]) and in data set [1] (setting [5]) were 0.2 and under 0.2, respectively.

With `COc1cc(C(C)(C)C)c2op(Oc3ccccc3C#N)oc3c(C(C)(C)C)cc(OC)cc3c2c1` [Ligand O], the Kpartition in data set [1] (setting [4]) and in data set [1] (setting [5]) was 5.2 throughout.
